Measured values taken from patent US10011573B2, “Human androgen receptor DNA-binding domain (DBD) compounds as therapeutics and methods for their use” (The University of British Columbia, priority 2014, dated 2018).
Read-outs that look alike come from different tables or passages of the source.

Tests used:
PSA = test: Prostate-specific antigen (PSA) assay, secreted PSA from the eGFP assay plates; type: cell-based, human
Method: 3. Prostate-specific antigen (PSA) assay: The evaluation of PSA levels secreted into the media was performed in parallel to the eGFP assay using the same plates. After cells were incubated for 3 days, 150 μl of the media was taken from each well, and added to 150 μl of PBS.

androgen receptor (AR) = molecular target: T1, androgen receptor (AR) (Homo sapiens, UniProt P10275, T878A); test: eGFP cellular AR transcription assay (LNCaP eGFP cells, LN-ARR2PB-eGFP); details: for inhibition at 3 µM: LNCaP, read-out: % Inhibition (3 μM)
T1 sequence (P10275 1-920 T878A): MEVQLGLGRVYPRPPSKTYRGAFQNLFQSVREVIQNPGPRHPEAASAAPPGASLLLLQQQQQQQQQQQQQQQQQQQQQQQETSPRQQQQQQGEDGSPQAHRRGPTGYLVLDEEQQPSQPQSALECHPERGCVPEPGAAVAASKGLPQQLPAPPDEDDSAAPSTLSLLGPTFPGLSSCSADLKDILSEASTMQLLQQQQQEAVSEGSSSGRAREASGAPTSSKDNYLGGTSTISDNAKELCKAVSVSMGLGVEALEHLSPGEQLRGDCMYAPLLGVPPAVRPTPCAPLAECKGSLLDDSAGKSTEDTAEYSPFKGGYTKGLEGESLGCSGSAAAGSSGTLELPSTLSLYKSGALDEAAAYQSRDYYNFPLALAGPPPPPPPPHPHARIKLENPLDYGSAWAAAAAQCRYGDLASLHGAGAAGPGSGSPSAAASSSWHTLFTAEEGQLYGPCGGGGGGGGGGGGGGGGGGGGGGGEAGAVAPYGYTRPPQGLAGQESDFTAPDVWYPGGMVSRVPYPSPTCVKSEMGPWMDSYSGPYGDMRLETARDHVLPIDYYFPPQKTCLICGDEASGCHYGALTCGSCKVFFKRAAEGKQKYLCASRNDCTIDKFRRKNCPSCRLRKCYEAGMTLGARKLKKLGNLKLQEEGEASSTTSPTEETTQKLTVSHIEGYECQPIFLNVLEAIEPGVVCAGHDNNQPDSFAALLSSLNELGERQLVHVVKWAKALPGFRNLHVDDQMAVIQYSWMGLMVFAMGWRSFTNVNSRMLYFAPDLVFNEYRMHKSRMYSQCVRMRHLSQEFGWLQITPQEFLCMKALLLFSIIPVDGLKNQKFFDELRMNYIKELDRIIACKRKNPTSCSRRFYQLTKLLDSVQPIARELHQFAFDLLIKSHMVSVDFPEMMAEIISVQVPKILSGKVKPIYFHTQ

AR target genes = test: Microarray genetic profile in LNCaP cells; details: 1 nM R1881, 24 h
[1] = eGFP IC50 (μM), LNCaP eGFP cells

Row | SMILES | IC50 (PSA; Homo sapiens, secreted PSA) | inhibition at 3 µM (androgen receptor (AR)) | IC50 (androgen receptor (AR); [1]) | IC50 (PSA; Homo sapiens, Series 1) | IC50 (androgen receptor (AR); eGFP IC50 (μM), Series 1) | further results
1 | CCC1CN(c2nc3ccccc3s2)CCO1 (centres unmarked) [Compound 14392] | 10400 nM | 55.5% | 7.07 µM | – | – | –
2 | N#Cc1cc(N2CCOCC2)nc2ccccc12 [Compound 14395] | 540 nM | 103% | 0.54 µM | – | – | –
3 | O=[N+]([O-])c1cccc2ccc(N3CCOCC3)nc12 [Compound 14398] | 850 nM | – | 0.82 µM | – | – | –
4 | Cc1ncn(-c2csc(N3CCOCC3)n2)c1C [Compound 14399] | – | – | – | – | – | IC50 (PSA; Series 1): 2420 nM; IC50 (androgen receptor (AR); read-out: eGFP IC50): 3.65 µM
5 | Oc1cccc2ccc(N3CCOCC3)nc12 [Compound 14400] | 380 nM | 79% | 0.46 µM | – | – | –
6 | c1ccc2nc(N3CCOCC3)ccc2c1 [Compound 14401] | 690 nM | 76% | 0.85 µM | – | – | –
7 | Clc1ncn(-c2csc(N3CCOCC3)n2)c1Cl [Compound 14402, 4-(4-(4,5-dichloro-1H-imidazol-1-yl)thiazol-2-yl)morpholine] | – | – | – | 570 nM | 0.66 µM | –
8 | Cc1scc(-c2csc(N3CCOCC3)n2)c1C [Compound 14408, 4-(4-(4,5-dimethylthiophen-3-yl)thiazol-2-yl)morpholine] | – | – | – | 430 nM | 0.42 µM | –
9 | Fc1ccc2sc(N3CCOCC3)nc2c1F [Compound 14409] | 340 nM | 86% | 0.36 µM | – | – | –
10 | c1cncc(-c2csc(-c3c[nH]c4ccccc34)n2)c1 [Compound 14442] | – | 86.3% | – | 3050 nM | 5.39 µM | –
11 | Brc1cn(-c2csc(N3CCOCC3)n2)cn1 [Compound 14447, 4-(4-(4-bromo-1H-imidazol-1-yl)thiazol-2-yl)morpholine] | – | – | – | 1740 nM | 2.1 µM | –
12 | Clc1cn(-c2csc(N3CCOCC3)n2)cn1 [Compound 14448, 4-(4-(4-chloro-1H-imidazol-1-yl)thiazol-2-yl)morpholine] | – | – | – | 720 nM | 0.96 µM | –
13 | Clc1c(Br)ncn1-c1csc(N2CCOCC2)n1 [Compound 14450, 4-(4-(4-bromo-5-chloro-1H-imidazol-1-yl)thiazol-2-yl)morpholine] | – | – | – | 1280 nM | 1.3 µM | –
14 | Clc1ncn(-c2csc(N3CCOCC3)n2)c1Br [Compound 14451, 4-(4-(5-bromo-4-chloro-1H-imidazol-1-yl)thiazol-2-yl)morpholine] | – | – | – | 440 nM | 0.33 µM | –
15 | Brc1ccc2nc(N3CCOCC3)ccc2c1 [Compound 14452] | 170 nM | – | 0.11 µM | – | – | –
16 | Nc1ccccc1-c1nc(-c2cccnc2)cs1 [Compound 14463] | – | – | – | 2120 nM | 2.3 µM | –
17 | Ic1ncn(-c2csc(N3CCOCC3)n2)c1I [Compound 14464, 4-(4-(4,5-diiodo-1H-imidazol-1-yl)thiazol-2-yl)morpholine] | – | – | – | 1810 nM | 1.5 µM | –
18 | Clc1ncn(-c2csc(N3CCOCC3)n2)c1I [Compound 14468, 4-(4-(4-chloro-5-iodo-1H-imidazol-1-yl)thiazol-2-yl)morpholine] | – | – | – | 4020 nM | 2.44 µM | –
19 | c1ccc2c(-c3csc(-c4c[nH]c5ccccc45)n3)c[nH]c2c1 [Compound 14471] | – | – | – | 1410 nM | 1.02 µM | –
20 | c1csc(-c2nc(-c3c[nH]c4ccccc34)cs2)c1 [Compound 14481] | – | 80.5% | – | 1410 nM | 2.18 µM | –
21 | N#Cc1ccc(-c2nc3ccccc3s2)cc1 [Compound 14489] | 1060 nM | 82.5% | 1.79 µM | – | – | –
22 | O=C(O)c1sc(N2CCOCC2)nc1-c1ccccc1 [Compound 14506] | – | – | – | – | – | IC50 (PSA; Series 1): 4500 nM; IC50 (androgen receptor (AR); read-out: eGFP IC50): 7 µM
23 | C[C@]1(O)CC[C@H]2[C@@H]3CCC4=CC(=O)CCC4=C3C=C[C@@]21C [Compound R1881, R1881, reference compound] | – | – | – | – | – | FKBP5 gene expression fold change, DMSO+R1881 against DMSO-R1881 (AR target genes): 1.61; KLK2 gene expression fold change, DMSO+R1881 against DMSO-R1881 (AR target genes): 3.60; KLK3 (PSA) gene expression fold change, DMSO+R1881 against DMSO-R1881 (AR target genes): 2.42; TMPRSS2 gene expression fold change, DMSO+R1881 against DMSO-R1881 (AR target genes): 2.25
